Data: patent US20010000786A1, “Product for promoting weight loss in overweight dogs” (priority 1998, published 2001)

What was measured:
[1] = system: overweight dogs; assay: Body weight and food intake of overweight dogs fed low-fat diets with supplemental L-carnitine; format: in vivo, beagle dogs; settings: for average voluntary consumption of the diet: seven weeks of feeding; for body weight change: seven weeks ad libitum, P<0.05 from control
Description: (§1) Thirty adult ovariohysterectomized female beagle dogs were used to study the effects of L-carnitine supplementation on weight loss. All of the animals were current on their vaccination and parasite prevention program. The dogs were housed individually in oversize pens and identified by a unique ear tattoo. Fresh water was provided ad libitum during the entire study period. Food intake was adjusted as necessary to achieve the desired weight for the study period.
Three dietary treatments were evaluated. The study consisted of three periods: weight gain, maintenance, and weight loss. During the eleven-week weight gain period, all dogs were fed a single diet Eukanuba Veterinary Diets® Nutritional Recovery Formula™ which contains 36.1 wt % protein, 26.1 wt % fat, and 2.1 wt % crude fiber) ad libitum.
(§2) At the initiation of the maintenance phase of the study (baseline or day 0), the dogs were randomized based on body weight into three dietary treatment groups of ten dogs each with a three day feed transition period starting on day 0. Each treatment group was randomly assigned to one of three low-fat diets (Table 1). The only difference between diets was the addition of 0, 50, or 100 ppm supplemental L-carnitine. No differences in the initial body weight or body condition score existed between groups.
The dogs were on 100% experimental diet on day 3 and were fed ad libitum during the seven-week maintenance phase of the study.
(§3) During the twelve-week weight loss phase of the study, the same experimental diets were offered as during the maintenance phase. However, the food intake was decreased to produce approximately 1.5 to 2.5% body weight loss per week. Exact amounts of experimental diets were fed to the dogs at approximately the same time each day, and remaining feed amounts were weighed the following day. Food intake and body weight were monitored daily and weekly, respectively. Whole body composition using the Dual Energy X-ray Absorptiometer (DEXA), and blood samples for CBC and chemistry were collected periodically during the study. Whole Body Composition by Dual Energy X-ray Absorptiometry. The dogs were scanned with a Hologic QDR-2000 Plus Dual-Energy X-Ray Absorptiometry (DEXA) bone densitometer, supported with Hologic MXA software, version 8.0. All dogs were anesthetized and placed on the Dual Energy X-ray Absorptiometry (DEXA) table in dorsal recumbency, with legs stretched caudally to avoid overlap of the legs over the body. The dogs were scanned using the Enhanced Array Whole Body software. The body composition measurements recorded consisted of surface area (cm^2), bone mineral content (BMC), bone mineral density (BMD), lean mass, fat content, percent fat, and estimated body weight. All measurements were reported in grams except for percent fat and area (cm^2). Percent lean and percent BMC were calculated from the lean mass, BMC, and estimated body weight data from the DEXA results.
A repeated measure classification analysis of variance was used to study “Treatment” and time dependent “Treatment×Time” effects (Gill and Hafs, J. Animal Sci. 33(2):331(1971)). The variables from the complete blood count, blood chemistry, body composition and body weights were studied using this analysis. All F-tests and mean separations using the Least Square Difference (LSD) used 0.05 Type 1 Error rate. […]

[2] = system: overweight dogs; assay: Whole body composition by Dual Energy X-ray Absorptiometry (DEXA); format: in vivo, beagle dogs
Description: as §1, §2, §3
The whole body composition was performed concomitantly and under anesthesia. The anesthetic regimen consisted of Atropine (0.01 mg/lb) as a pre-anesthetic, the combination Xylazine/Telazol/Torbugesic (0.8/6.7/0.13 mg/kg) as induction and Isoflurane (Aerrane, Ohmeda Pharmaceutical Products, Liberty Corner, N.J.) as a maintenance agent using a nose cone.
A repeated measure classification analysis of variance was used to study “Treatment” and time dependent “Treatment×Time” effects (Gill and Hafs, J. Animal Sci. 33(2):331(1971)). The variables from the complete blood count, blood chemistry, body composition and body weights were studied using this analysis. All F-tests and mean separations using the Least Square Difference (LSD) used 0.05 Type 1 Error rate. One degree of freedom comparisons between experimental diets B versus C (comparison 1) and A versus B and C (comparison 2) were computed for the body composition and body weight variables. Comparisons 1 and 2 form an orthogonal set. An a of 0.05 was used to test for non-zero value of the mean of the two groups defined per contract. The “Treatment×Time” interaction was investigated by computing a test for linear, quadratic, and cubic response over time for each treatment. Then a test of parallelism, equal quadric response and equal cubic response was done to test equality of trend in response among treatments. An α of 0.05 for the F-tests was used in all cases. All computations were done using SAS (statistical analysis system) software (1989).

[3] = 50 ppm supplemental carnitine, Week 0
[4] = 50 ppm supplemental carnitine, Week 7
[5] = 100 ppm supplemental carnitine, Week 0
[6] = 100 ppm supplemental carnitine, Week 7

C[N+](C)(C)C[C@H](O)CC(=O)[O-] [L-carnitine]
total weight loss per total food intake compared with no supplementation ([1]; 50 and 100 ppm, FIG. 7, P<0.05): greater total weight loss per total food intake
average voluntary consumption of the diet ([1]; 50 ppm carnitine): 1574 g/week
body weight change ([1]; 50 ppm supplemental carnitine in low-fat diet): −6.4%
average voluntary consumption of the diet ([1]; 100 ppm carnitine): 1567 g/week
body weight change ([1]; 100 ppm supplemental carnitine in low-fat diet): −5.7%
lean body mass compared with no supplementation ([2]; 50 and 100 ppm, FIG. 6): leaner body mass
body fat loss compared to no (0 ppm) supplementation ([2]; 50 and 100 ppm, difference day 0 to day 49, day 92, day 133 as percentage of day 0, FIG. 5): more body fat loss (P<0.05)
body fat loss compared to 0 ppm supplementation ([2]; 50 and 100 ppm, difference day 0 to day 49 as percentage of day 0, FIG. 4): more body fat loss (P<0.05)
BMC (bone mineral content) as percent of total body mass [2, 3]: 1.6%
Fat mass as percent of total body mass [2, 3]: 42.4%
LBM (lean body mass) as percent of total body mass [2, 3]: 56.0%
BMC (bone mineral content) as percent of total body mass [2, 4]: 1.7%
Fat mass as percent of total body mass [2, 4]: 37.8%
LBM (lean body mass) as percent of total body mass [2, 4]: 60.5%
BMC (bone mineral content) as percent of total body mass [2, 5]: 1.6%
Fat mass as percent of total body mass [2, 5]: 42.5%
LBM (lean body mass) as percent of total body mass [2, 5]: 55.9%
BMC (bone mineral content) as percent of total body mass [2, 6]: 1.6%
Fat mass as percent of total body mass [2, 6]: 38.9%
LBM (lean body mass) as percent of total body mass [2, 6]: 59.5%
